Measurements taken from patent US20030125234A1, “Alteration of protein stability” (priority 2001, published 2003).

What was measured:
Assay type in all cases: biochemical
[1] = target: T1, porcine heart citrate synthase (CS) (Sus scrofa, UniProt P00889); assay: Citrate synthase thermal aggregation (turbidity at 360 nm); details: CS 96 μg/mL, 45° C., standard deviation in parenthesis
T1 construct: porcine heart citrate synthase (CS); from tissue; host or cells: porcine heart
T1 sequence (P00889 28-464): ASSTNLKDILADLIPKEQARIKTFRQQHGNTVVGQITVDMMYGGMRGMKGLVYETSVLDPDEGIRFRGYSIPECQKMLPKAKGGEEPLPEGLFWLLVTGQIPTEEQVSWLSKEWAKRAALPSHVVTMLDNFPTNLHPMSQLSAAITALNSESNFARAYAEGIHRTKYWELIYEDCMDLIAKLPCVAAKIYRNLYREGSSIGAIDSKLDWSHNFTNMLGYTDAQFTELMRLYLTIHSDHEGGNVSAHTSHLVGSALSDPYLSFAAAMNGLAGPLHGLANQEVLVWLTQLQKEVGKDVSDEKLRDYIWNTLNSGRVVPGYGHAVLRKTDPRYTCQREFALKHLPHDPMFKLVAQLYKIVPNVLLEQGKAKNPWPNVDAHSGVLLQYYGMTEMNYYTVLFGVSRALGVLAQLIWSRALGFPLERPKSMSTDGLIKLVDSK
Experimental: (§1) Bovine insulin [Sigma, St. Louis, Mo., USA] was dissolved in phosphate saline (PBS) (50 mM sodium biphosphate, 100 mM sodium chloride), pH 7.0, bovine alpha-lactalbumin [Sigma] in 50 mM sodium phosphate, 100 mM sodium chloride and 2 mM EDTA, pH 6.2, chicken egg white lysozyme [Sigma] in 100 mM Tris, 1 mM EDTA, pH 8.2, human acidic fibroblast growth factor (FGF-1) in 6.2 mM sodium biphosphate, 120 mM sodium chloride, pH 7.2, porcine somatotropin (pST) [provided by Pfizer, Inc., Groton, Conn., USA] in 10 mM phosphate, pH 6. 1, human apolactoferrin (HLF) [Sigma] in 20 mM HEPES, 154 mM NaCl, pH 7.4, porcine heart citrate synthase (CS) in 40 mM HEPES, 50 mM KCl, 10 mM (NH4)2SO4 mM potassium acetate, pH 7.8, and yeast alcohol dehydrogenase (ADH) [Sigma] in pH 7.0 PBS. Selection of buffer solutions was based on an extensive series of preliminary studies to obtain appropriate insolubilization kinetics as described below.
(§2) The following compounds were obtained from Sigma and used without further purification: oxalic acid, sodium malonate, succinic acid, glutaric acid, adipic acid, pimelic acid, suberic acid, azelaic acid, guanidine hydrochloride, ammonium formate, beta-alanine, 4-aminobutyric acid, 5-aminovaleric acid, 6-aminocaproic acid, 7-aminoheptanoic acid, hydrazine, ethylenediamine, 1,3-diaminopropane, 1,4-diaminobutane, 1,5-diaminopentane, 1,6-diaminohexane, 1,7-diaminoheptane, Glu-Glu, Glu-Lys, Lys-Lys, diglycine, triglycine, tetraglycine, pentaglycine, and hexaglycine. […] Triglycine and tetraglycine were dissolved in pH 8.6 PBS, while pentaglycine and hexaglycine were dissolved in pH 10.6 PBS.
(§3) Each was either dissolved in pH 7.0 PBS, or pH 6.1 10 mM phosphate, and adjusted to the same pH.
(§4) Protein aggregation was monitored for 1 hour at 360 nm using an HP8453 UV-visible spectrophotometer system [Hewlett Packard, Germany]. […] Insulin (0.25 mg/mL (4.39E-5 M)) aggregation was monitored at 25° C. after addition of potential inhibitors and 20 μL of 1 M DTT (1.27E-4 M). Alpha-lactabumin (0.4 mg/mL (2.82E-5 M)) aggregation was monitored at 37° C. in the presence of 20 μL of 1 M DTT (1.27E-4 M). Lysozyme (0.4 mg/mL (2.86E-5 M)) aggregation was monitored at 25° C. in the presence of 20 μL of 1 M DTT (1.27E-4 M). FGF-1 (50 μg/mL (3.12E-6 M)) aggregation was monitored at 50° C. Porcine somatotropin (1.27 mg/mL (5.76E-5 M)) aggregation was monitored at 60° C. in the presence of PEG 8000 (20 mg/mL) which was included to enhance the protein association process through a simple exclusion volume effect. HLF (0.4 mg/mL (5.23E-6 M)) aggregation was monitored at 43° C. in the presence of 1.27E-4 M DTT. Citrate synthase (96 μg/mL (9.80E-7 M)) aggregation was monitored at45° C. ADH (1 mg/mL (7.14E-6 M)) was monitored at 37° C. following the addition of 7.76E-5 M Cu(OP)2. Aggregation was compared to protein in the absence of the particular dipolar compound. After stirring, experiments were initiated by the addition of proteins followed by stressing reagents to 1 cm pathlength cuvettes employing a seven-position thermostatted sample holder that was cycled at 30-second intervals. Alternatively, a microtiter plate reader was employed under the same conditions in a 96 well format.
(§5) All optical density (OD)360nm versus time results were exported into Excel [Microsoft] for data analysis. […] The maximum rate of change in OD versus time plots (r) was used to determine the rate of the reaction from the slope at this point.

[2] = target: T2, human apolactoferrin (HLF) (Homo sapiens, UniProt P02788); assay: HLF aggregation (turbidity at 360 nm) induced by DTT; details: for inhibition index: HLF 0.4 mg/mL, 43° C., DTT, head 10,000×, standard deviation in parenthesis
T2 construct: purchased Sigma
Experimental: as §1
(§6) Copper O-phenanthroline (1,10-phenanthroline) was prepared by mixing copper sulfate hexahydrate [Fisher] and o-phenanthroline [Sigma] in a 1:2 ratio. 1 M Dithiothreitol (DTT) was prepared at pH 7.0 PBS. Polyethylene glycol (M.W. 8000, Union Carbide, Danbury, Conn., USA) (PEG) was prepared at 20 mg/mL in 10 mM phosphate, pH 6.1.
as §2, §3, §4
(§7) All optical density (OD)360nm versus time results were exported into Excel [Microsoft] for data analysis.

Bovine insulin = target: T3, Bovine insulin (Bos taurus, UniProt P01317); assay: Insulin aggregation (turbidity at 360 nm) induced by DTT; details: for inhibition index: Insulin 0.25 mg/mL, 25° C., DTT, compound 100×, standard deviation in parenthesis
T3 construct: purchased Sigma, St. Louis, Mo., USA
Experimental: as §1, §6, §2, §3, §4, §7

[3] = target: human acidic fibroblast growth factor (FGF-1) (Homo sapiens, UniProt P05230); assay: FGF-1 thermal aggregation (turbidity at 360 nm); details: for inhibition index: FGF-1 50 μg/mL, 50° C., standard deviation in parenthesis
Experimental: as §1, §2, §3, §4, §5

T3 sequence (P01317 25-54 limits assumed): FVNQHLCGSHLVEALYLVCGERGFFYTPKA
T3 sequence (P01317 85-105 limits assumed): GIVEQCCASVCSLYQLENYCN
T2 sequence (P02788 20-710): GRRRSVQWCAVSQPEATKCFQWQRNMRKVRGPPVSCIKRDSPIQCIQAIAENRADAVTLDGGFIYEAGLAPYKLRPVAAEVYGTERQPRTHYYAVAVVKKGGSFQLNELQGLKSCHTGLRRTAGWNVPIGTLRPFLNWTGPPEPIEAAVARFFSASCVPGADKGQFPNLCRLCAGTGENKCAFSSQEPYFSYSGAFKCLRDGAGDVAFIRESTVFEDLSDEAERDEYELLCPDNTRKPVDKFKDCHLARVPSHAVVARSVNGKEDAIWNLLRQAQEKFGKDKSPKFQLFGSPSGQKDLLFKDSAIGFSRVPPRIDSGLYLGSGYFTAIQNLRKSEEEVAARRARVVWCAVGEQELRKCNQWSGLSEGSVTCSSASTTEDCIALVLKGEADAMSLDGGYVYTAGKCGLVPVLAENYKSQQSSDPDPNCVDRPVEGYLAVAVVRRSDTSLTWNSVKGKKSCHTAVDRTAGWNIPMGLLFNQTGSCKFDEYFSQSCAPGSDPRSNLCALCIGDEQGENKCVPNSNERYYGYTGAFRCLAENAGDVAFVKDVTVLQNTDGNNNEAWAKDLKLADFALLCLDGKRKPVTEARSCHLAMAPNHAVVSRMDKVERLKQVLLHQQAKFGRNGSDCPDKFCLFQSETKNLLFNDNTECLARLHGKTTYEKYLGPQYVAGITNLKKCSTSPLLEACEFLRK
human acidic fibroblast growth factor (FGF-1), sequence (P05230 whole entry): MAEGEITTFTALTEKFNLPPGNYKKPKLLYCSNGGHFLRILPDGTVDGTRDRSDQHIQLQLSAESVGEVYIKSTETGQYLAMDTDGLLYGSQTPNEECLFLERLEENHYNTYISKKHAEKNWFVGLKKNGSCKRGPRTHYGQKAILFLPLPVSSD

Compound | inhibition index ([1]; compound 10,000X) | inhibition index ([1]; compound 50,000X) | inhibition index ([2]; second HLF column) | inhibition index (Bovine insulin) | inhibition index ([3]; compound 1,000×) | inhibition index ([3]; compound 10,000×) | inhibition of insulin aggregation, in words (Bovine insulin) | inhibition of lactoferrin (HLF) aggregation, in words [2] | inhibition of FGF-1 aggregation, in words ([3]; text and FIG. 2 (1,000X to 50,000X)) | inhibition index ([1]; compound 1,000X) | inhibition index ([2]; first HLF column)
NCCCN [1,3-diaminopropane] | 0.7 (0.3) | 7.7 | 31.5 (12.0) | 1.3 (0.3) | 2.2 (0.3) | 3.5 (2.3) |  |  |  |  | 
NCCCCN [1,4-diaminobutane] | 0.9 (0.3) | 4.0 (2.3) | 34.5 (13.0) | 1.4 (0.4) | 2.5 (1.3) | 33.7 (6.6) |  |  |  |  | 
NCCCCCN [1,5-diaminopentane] | 0.8 (0.2) | 8.3 (4.5) | 28.8 (13.3) | 1.5 (0.6) | 3.3 (0.7) | 46.5 (19.8) |  |  |  |  | 
NCCCCCCN [1,6-diaminohexane] | 0.6 (0.2) | 4.8 (1.5) | 18.0 (4.9) | 1.5 (0.3) | 1.6 (0.6) | 27.0 (9.8) |  |  |  |  | 
NCCCCCCCN [1,7-diaminoheptane] | 0.6 (0.2) | 1.7 (0.7) | 11.0 (2.1) | 2.7 (1.0) | 2.0 (0.7) | 6.2 (2.4) | weak inhibitions |  |  |  | 
NCCCC(=O)O [4-aminobuytrate, 4-aminobutyric acid] | 0.6 (0.1) | 1.2 (0.4) | 9.5 (1.9) | 1.2 (0.3) | 1.5 (0.0) | 1.4 (0.3) |  |  |  |  | 
NCCCCC(=O)O [5-aminovalerate, 5-aminovaleric acid] | 0.7 (0.1) | 1.9 (0.7) | 8.4 (2.6) | 1.2 (0.1) | 1.1 (0.2) | 2.2 (1.4) |  |  |  |  | 
NCCCCCC(=O)O [6-aminocaproate, 6-aminocaproic acid] | 0.5 (0.1) | 1.5 (0.8) | 7.9 (3.4) | 1.4 (0.2) | 2.2 (0.3) | 2.4 (0.5) |  |  |  |  | 
NCCCCCCC(=O)O [7-aminoheptanoate, 7-aminoheptanoic acid] | 0.5 (0.1) | 1.7 (0.4) | 4.7 (0.7) | 2.4 (1.0) | 0.9 (0.4) | 1.3 (0.1) | weak inhibitions |  |  |  | 
O=C(O)CCCCC(=O)O [adipate, adipic acid] | 1.2 (0.5) | 19.6 (17.1) | 113.0 | 1.2 (0.7) | 3.0 (0.7) | 5.0 (3.3) |  |  |  |  | 
NCCC(=O)O [beta-alanine] | 0.6 (0.1) | 1.9 (0.8) | 24.2 (4.4) | 1.1 (0.1) | 1.1 (0.2) | 1.5 (0.5) |  | effective inhibitors |  |  | 
NCCN [ethylenediamine] | 1.8 (0.5) | 18.5 | 44.5 (13.9) | 0.9 (0.3) | 2.2 (0.7) | 3.3 (1.3) |  |  |  |  | 
O=C(O)CCCC(=O)O [glutarate, glutaric acid] | 1.4 (0.5) | 6.5 (0.3) | 49.7 (28.9) | 1.0 (0.2) | 3.0 (0.9) | 10.8 (8.4) |  |  |  |  | 
NCC(=O)O [glycine] | 0.8 (0.2) |  | 1.5 (0.1) | 1.0 (0.3) | 1.3 (0.3) | 3.0 (1.7) |  |  |  |  | 
O=C([O-])CC(=O)[O-].[Na+].[Na+] [malonate, sodium malonate] | 2.4 (0.5) | 9 | 1714.1 | 1.2 (0.5) | 2.2 (0.4) | 36.6 (29.0) |  |  |  |  | 
O=C(O)C(=O)O [oxalate, oxalic acid] | 1.9 (0.5) | 6.2 (3.8) | 666.9 | 0.9 (0.6)^3 | 5.2 (1.5) | 605.5 (89.1) |  |  | effective inhibitors |  | 
O=C(O)CCCCCC(=O)O [pimelate, pimelic acid] | 1.4 (0.4) | 6.7 (0.1) | 78.9 (68.2) | 1.4 (0.6) | 3.1 (1.0) | 12.1 (8.8) |  |  |  |  | 
O=C(O)CCCCCCC(=O)O [suberate, suberic acid] | 1.1 (0.2) | 14.1 (2.1) | 95.4 (34.6) | 1.6 (0.3) | 2.3 (0.5) | 7.1 (5.4) |  |  |  |  | 
O=C(O)CCC(=O)O [succinate, succinic acid] | 2.1 (0.5) | 9.6 | 33.7 (11.9) | 1.0 (0.3) | 2.1 (0.4) | 9.2 (1.9) |  |  |  |  | 
pentaglycine |  |  | 0.5 (0.0) | 1.0 (0.2) |  |  |  |  |  | 0.6 (0.2) | 979.0 (7.5)
